Measurements: patent publication US9931331B2 (priority 2013, dated 2018)
Like-named read-outs stand apart in the source and are kept apart here. Residues, ends and D or L forms follow the SMILES beside them. *: point of attachment. Cbz = O=C(OCc1ccccc1)*

Legend:
[1] = system: cervical cancer cell (HeLa); assay: Cell viability (calcein-AM / ethidium homodimer-1), HeLa; conditions: 24 h
Method: (§1) Strains of cervical cancer cell (HeLa), kidney cancer cell (Caki-1), brain tumor cell (T98G), breast cancer cell (MDA-MB 435S), and colon cancer cell (DLD-1), multiple myeloma cell (RPMI-8226), and a strain of normal breast epithelial cell (MCF-10A) were available from ATCC (American Type Culture Collection, USA). The strains of cervical cancer cell (HeLa), kidney cancer cell (Caki-1), brain tumor cell (T98G), breast cancer cell (MDA-MB 435S), and colon cancer cell (DLD-1) were cultured by using a DMEM medium including 10% fetal bovine serum (FBS), 2 mM of L-glutamin, 100 i.u./ml of penicillin, and […] of streptomycin for the culture and maintenance; multiple myeloma cell (RPMI-8226) was cultured by using a RPMI1640 medium including 10% FBS, 100 i.u./ml of penicillin, and […] of streptomycin; and the strain of normal breast epithelial cell (MCF-10A) was cultured by using a mammary epithelial growth medium (MEGM) including a bovine pituitary extract, insulin, human epidermal growth factor, hydrocortisone, and antibiotics, and the culture conditions included 37° C. and 5% CO2 in an incubator.
(§2) Then, the cells were stained by using 2 μM calcein-AM and 4 μM ethidium homodimer-1, and cell viability was measured by using a fluorescent microscope (Axiovert 200M, available from Carl Zeiss, Jena, Germany).

[2] = system: breast cancer cell (MDA-MB 435S); assay: Cell viability (calcein-AM / ethidium homodimer-1), MDA-MB 435S; conditions: 24 h
Method: as §1, §2

[3] = system: colon cancer cell (DLD-1); assay: Cell viability (calcein-AM / ethidium homodimer-1), DLD-1; conditions: for cytotoxicity at 1 µM: read-out: cell viability decreased
Method: as §1, §2

brain tumor cell (T98G) = assay: Cell viability (calcein-AM / ethidium homodimer-1), T98G; conditions: 24 h
Method: as §1, §2

in vitro = conditions: human
Method: as §1, §2

[4] = system: kidney cancer cell (Caki-1); assay: Cell viability (calcein-AM / ethidium homodimer-1), Caki-1
Method: as §1, §2

[5] = system: multiple myeloma cell (RPMI-8226); assay: Cell viability (calcein-AM / ethidium homodimer-1), RPMI-8226; conditions: for Cell viability: RPMI-8226, 24 h
Method: as §1, §2

[6] = system: normal breast epithelial cell (MCF-10A); assay: Cell viability (calcein-AM / ethidium homodimer-1), MCF-10A; conditions: MCF-10A, 24 h
Method: as §1, §2

[7] = Homo sapiens, read-out: Cell viability
[8] = Homo sapiens, read-out: cell viability decreased
[9] = Homo sapiens, MDA-MB-435S, read-out: Cell viability
[10] = Homo sapiens, DLD-1, 24 h, read-out: Cell viability
[11] = Homo sapiens, CAKI-1, 24 h, read-out: Cell viability
[12] = Homo sapiens, CAKI-1, 24 h, read-out: cell viability decreased
[13] = Homo sapiens, RPMI-8226, 24 h, read-out: Cell viability
[14] = Homo sapiens, MDA-MB-435S, read-out: cell viability decreased

CC(C)C[C@H](NC(=O)[C@H](Cc1ccccc1)NC(=O)c1cnccn1)B(O)O [Bortezomib, N-(2-pyrazine)carbonyl-L-phenylalanine-L-leucine boronic acid]
viability at 0.02 µM [1, 7]: 100% | viability at 0.04 µM [1, 7]: 90.8% | cytotoxicity at 0.04 µM [1, 8]: ~10% | viability at 0.0075 µM [2, 9]: 100% | viability at 0.015 µM [2, 9]: 91% | cancer cell toxicity ([2]; MDA-MB 435S, bortezomib alone up to 15 nM): did not induce cancer cell toxicity | viability at 0.04 µM [3, 10]: 99.7% | viability at 0.06 µM [3, 10]: 95% | viability at 0.005 µM (brain tumor cell (T98G); [7]): 99.7% | viability at 0.01 µM (brain tumor cell (T98G); [7]): 89.7% | viability at 24 h, 15 nM (in vitro): 98.8% | viability at 24 h, 30 nM (in vitro): 94.6% | viability at 0.01 µM [4, 11]: 100% | viability at 0.02 µM [4, 11]: 78% | cytotoxicity at 0.02 µM [4, 12]: ~22% | viability at 0.001 µM [5, 13]: 100% | viability at 0.002 µM [5, 13]: 81.7%

CC(C)C[C@H](NC(=O)[C@H](CCc1ccccc1)NC(=O)CN1CCOCC1)C(=O)N[C@@H](Cc1ccccc1)C(=O)N[C@@H](CC(C)C)C(=O)[C@@]1(C)CO1 [Carfilzomib]
viability at 0.05 µM [1, 7]: 90% | viability at 0.1 µM [1, 7]: 89.8% | cytotoxicity at 0.1 µM [1, 8]: ~10% | viability at 0.025 µM [2, 9]: 87.1% | viability at 0.05 µM [2, 9]: 84.4% | cytotoxicity at 0.05 µM [2, 14]: ~15% | viability at 0.1 µM [3, 10]: 98.2% | viability at 0.2 µM [3, 10]: 94.7% | viability at 0.02 µM (brain tumor cell (T98G); [7]): 100% | viability at 0.04 µM (brain tumor cell (T98G); [7]): 93% | viability at 24 h, 50 nM (in vitro): 99.5% | viability at 24 h, 100 nM (in vitro): 98.1% | viability at 0.05 µM [4, 11]: 95.6% | viability at 0.1 µM [4, 11]: 95.2% | viability at 0.005 µM [5, 13]: 95.8% | viability at 0.01 µM [5, 13]: 63.4%

CC1=C(O)C(=O)C=C2C1=CC=C1[C@@]2(C)CC[C@@]2(C)[C@@H]3C[C@](C)(C(=O)O)CC[C@]3(C)CC[C@]12C [Celastrol]
viability at 0.5 µM ([1]; Homo sapiens, read-out: Cell viability, HeLa, celastrol 0.5 μM alone): 100% | viability at 1 µM ([1]; Homo sapiens, read-out: Cell viability, HeLa, celastrol 1 μM alone): 88.4% | cytotoxicity at 1 µM [1, 8]: ~11% | viability at 0.25 µM [2, 9]: 100% | viability at 0.5 µM [2, 9]: 92.5% | cytotoxicity at 0.5 µM ([2]; Homo sapiens, MDA-MB-435S, read-out: cell viability decreased, MDA-MB 435S, celastrol alone 0.5 μM): ~7% | viability at 0.5 µM [3, 10]: 90.5% | viability at 1 µM [3, 10]: 88.7% | cytotoxicity at 1 µM ([3]; Homo sapiens, DLD-1, 24 h): ~11% | viability at 1 µM (brain tumor cell (T98G); Homo sapiens, read-out: Cell viability, T98G, celastrol 1 μM alone): 100% | viability at 2 µM (brain tumor cell (T98G); Homo sapiens, read-out: Cell viability, T98G, celastrol 2 μM alone): 91.3% | cytotoxicity at 2 µM (brain tumor cell (T98G); [8]): ~9% | viability at 24 h, 0.25 μM (in vitro; Cell viability, MCF-10A, celastrol 0.25 μM alone, 24 h): 98.9% | viability at 24 h, 0.5 μM (in vitro; Cell viability, MCF-10A, celastrol 0.5 μM alone, 24 h): 95.9% | viability at 1 µM [4, 11]: 100% | viability at 2 µM [4, 11]: 69.6% | cytotoxicity at 2 µM [4, 12]: ~30% | viability at 0.05 µM [5, 13]: 90.7% | viability at 0.1 µM [5, 13]: 69%

COc1cc(/C=C/C(=O)CC(=O)/C=C/c2ccc(O)c(OC)c2)ccc1O [Curcumin]
viability at 10 µM [1, 7]: 100% | viability at 20 µM [1, 7]: 91.3% | cytotoxicity at 20 µM [1, 8]: ~9% | viability at 10 µM [2, 9]: 70.7% | viability at 20 µM [2, 9]: 58.8% | cytotoxicity at 20 µM [2, 14]: ~41% | viability at 20 µM [3, 10]: 96.7% | viability at 30 µM [3, 10]: 89% | viability at 10 µM (brain tumor cell (T98G); [7]): 99.7% | viability at 20 µM (brain tumor cell (T98G); [7]): 96.5% | viability at 24 h, 10 μM (in vitro): 97.7% | viability at 24 h, 20 μM (in vitro): 95.9% | viability at 15 µM [4, 11]: 78.5% | viability at 30 µM [4, 11]: 68.2% | cytotoxicity at 30 µM [4, 12]: ~32% | viability at 10 µM [5, 13]: 93.6% | viability at 20 µM [5, 13]: 61.9%

CC[C@H](C)[C@H](NC(=O)[C@H]([C@@H](C)CC)N(C)C(C)=O)C(=O)N[C@H](C(=O)N[C@@H](CC(C)C)C(=O)[C@@]1(C)CO1)[C@@H](C)O [Epoxomicin]
Cell viability ([1]; epoxomicin 10 nM alone): 100 | Cell viability ([1]; epoxomicin 20 nM alone): 87.73 | cell viability decreased ([1]; epoxomicin alone 20 nM): about 12% | cell viability decreased ([2]; MDA-MB 435S, epoxomicin alone 15 nM): about 18% | Cell viability ([3]; DLD-1, epoxomicin 20 nM alone, 24 h): 99.70 | Cell viability (brain tumor cell (T98G); epoxomicin 5 nM alone): 95.66 | Cell viability (brain tumor cell (T98G); epoxomicin 10 nM alone): 79.79 | Cell viability ([6]; epoxomicin 10 nM alone): 97.62 | Cell viability ([6]; epoxomicin 20 nM alone): 94.36 | Cell viability ([4]; Caki-1, epoxomicin 20 nM alone, 24 h): 100 | cell viability decreased ([4]; Caki-1, epoxomicin alone 40 nM, 24 h): about 35% | cancer cell toxicity ([4]; Caki-1, epoxomicin alone up to 20 nM, 24 h): did not induce cancer cell toxicity | Cell viability ([5]; epoxomicin 2.5 nM alone): 100 | Cell viability ([5]; epoxomicin 5 nM alone): 92.72

CC(C)C[C@@H](C=O)NC(=O)[C@H](CC(C)C)NC(=O)[C@H](CC(C)C)NC(=O)OCc1ccccc1 [MG132] (Cbz-Leu-Leu-Leu-aldehyde)
viability at 0.5 µM [1, 7]: 100% | viability at 1 µM [1, 7]: 100% | cell toxicity ([1]; MG132 alone up to 1 μM): did not exhibit cell toxicity | viability at 0.25 µM [2, 9]: 100% | viability at 0.5 µM [2, 9]: 93% | cancer cell toxicity ([2]; MDA-MB 435S, MG132 alone up to 0.5 μM): did not exhibit significant cancer cell toxicity | viability at 0.5 µM [3, 10]: 91.7% | viability at 1 µM [3, 10]: 81.3% | cytotoxicity at 1 µM ([3]; Homo sapiens, DLD-1, 24 h): ~19% | viability at 0.125 µM (brain tumor cell (T98G); [7]): 99.7% | viability at 0.25 µM (brain tumor cell (T98G); [7]): 96.5% | cancer cell toxicity (brain tumor cell (T98G); MG132 up to 0.25 μM): did not exhibit significant cancer cell toxicity | viability at 24 h, 0.25 μM (in vitro): 95.2% | viability at 24 h, 0.5 μM (in vitro): 92.9% | viability at 0.5 µM [4, 11]: 100% | viability at 1 µM [4, 11]: 89.3% | cytotoxicity at 1 µM [4, 12]: ~10% | viability at 0.1 µM [5, 13]: 100% | viability at 0.2 µM [5, 13]: 99.1%

CC(C)C[C@H](NC(=O)CNC(=O)c1cc(Cl)ccc1Cl)B1OC(=O)C(CC(=O)O)(CC(=O)O)O1 [MLN9708]
viability at 0.1 µM [1, 7]: 100% | viability at 0.2 µM [1, 7]: 97.8% | viability at 0.1 µM [2, 9]: 97.5% | viability at 0.2 µM [2, 9]: 93.3% | cytotoxicity at 0.2 µM [2, 14]: ~10% | viability at 0.1 µM [3, 10]: 98.2% | viability at 0.2 µM [3, 10]: 95.2% | viability at 0.05 µM (brain tumor cell (T98G); [7]): 92% | viability at 0.1 µM (brain tumor cell (T98G); [7]): 84.7% | viability at 24 h, 50 nM (in vitro): 98% | viability at 24 h, 100 nM (in vitro): 92.3% | viability at 0.1 µM [4, 11]: 83.3% | viability at 0.2 µM [4, 11]: 75.7% | cytotoxicity at 0.2 µM [4, 12]: ~25% | viability at 0.02 µM [5, 13]: 100% | viability at 0.04 µM [5, 13]: 80.8%
